Reference: ChEMBL document CHEMBL3507680, “University of Dundee, Gates Library screen for HepG2 cell viability”

test: Human HepG2 cell viability assay in 384 well format; format: toxicity, cell-based; set-up: dose 125 nL, time 70.5 hour; cytotoxicity at 70.5 h: concentration not given beside the values; details: HepG2 cells, read-out: Inhibition

Compound | cytotoxicity at 70.5 h
COc1ccccc1Oc1ncccc1CNC(=O)[C@@H](C)NC(C)=O | -0.828%
O=C(Cc1csc(-c2ccco2)n1)N1CCN(c2cnccn2)CC1 | 1.22%
CCN1C[C@H]2[C@@H](C1)N(S(=O)(=O)c1ccccc1F)CC[C@H]2OC | -3.89%
Cn1nccc1-c1cccc(CC2CCN(S(C)(=O)=O)C2)n1 (centres undefined) | -4.28%
Cc1ncsc1C(=O)NC1CCN(Cc2cccc3c2OCCO3)CC1 | -0.651%
CCCn1ncc(CN2C[C@@H]3CCCN3C[C@@H]2CCSC)c1C | 8.56%
CNC(=O)[C@@H]1[C@H]2CN(Cc3ccccn3)CCN2C[C@H]1c1ccccc1 | 4.19%
CNC(=O)c1cccnc1NCc1ccc(Cn2cccn2)cc1 | -3.1%
C1CCC(NC2CCCN(Cc3noc(C4CC4)n3)C2)C1 (centres undefined) | -15.1%
COc1cccc(C2(NC(=O)CCNC(C)=O)CC2)c1 | 5.65%
O=C(c1ncn2c1CNS(=O)(=O)c1ccccc1-2)N1CCCCCC1 | 0.0876%
O=C(COc1ccc2c(c1)CCC2)N1CCCC(n2cccn2)C1 (centres undefined) | 15.3%
O=C(Cc1ccsc1)NC1CCc2c(ccc(=O)n2CC2CC2)C1 (centres undefined) | 12%
CCn1ccnc1CN1CCN(CCC(=O)NC(C)(C)C)CC1C (centres undefined) | -1.52%
CC(C)c1nc(CN(C)C(=O)CCNC(=O)c2ccccc2F)no1 | 19.8%
CC(=O)N(C)CC(=O)NCC1(c2c(F)cccc2F)CCCC1 | 0.534%
CCN(C(=O)CN1CCCC1Cc1ccccc1)c1ccccc1 (centres undefined) | 8.48%
c1nc2n(n1)CC(NCc1nc(-c3ccsc3)no1)CC2 (centres undefined) | -8.53%
COc1ccc(CN(C)[C@@H]2CN(C(=O)c3cccs3)C[C@H]2O)cc1 | -6.31%
CN1C(=O)CC(c2ccccc2)C12CCN(c1ncccn1)CC2 (centres undefined) | 27.6%
O=C1CC(NS(=O)(=O)NCc2ccccc2)CN1c1ccccc1Cl (centres undefined) | 5.29%
O=C(Cc1cccc(F)c1)NCCNS(=O)(=O)C1CCCC1 | -12.5%
Cc1cc(N(Cc2ccon2)S(C)(=O)=O)ccc1Br | 17.3%

Compound | cytotoxicity at 70.5 h
CCOC(CC)C(=O)NCCC(=O)N1CCN(c2ncccn2)CC1 (centres undefined) | -18.6%
Cc1c(-c2nc(-c3cccc(CN4CCOCC4)c3)no2)cnn1C | -13.7%
Cc1csc2ncn(C(C)Cc3cccnc3)c(=O)c12 (centres undefined) | -4.53%
COc1ccc(C[C@H]2CN(C(=O)c3ccn(C)n3)CC[C@H]2OC)cc1 | -0.598%
c1cc(C2CCCN2CC2CCCCC2)n[nH]1 (centres undefined) | -8.35%
O=C(c1ncccn1)N1C[C@H]2CCC[C@@]2(COCC2CCOCC2)C1 | -15.9%
Cc1nc(NC(=O)c2c(-n3cnnn3)sc(C)c2C)sc1C | -8.41%
Cc1nn(C)cc1-c1cncn1CCN(C)C1CCCC1 | -5%
CC(Cc1c(F)cccc1F)NC(=O)NCc1ncnn1C (centres undefined) | -2.54%
CC(=O)NCCc1ccc(S(=O)(=O)Nc2ccc(C)c(F)c2)s1 | -5.64%
CN1CCOC(CNCCCOc2ccc(C#N)cc2)C1 (centres undefined) | -5.34%
CN(C)C(=O)C1CN(Cc2ccc(C#N)cc2)c2ccccc2O1 (centres undefined) | 4.19%
Cc1ccc(-c2nnc(SCC(=O)O)n2-c2ccc(C)cc2)cc1 | -15.4%
Cn1c(CN2CCOCC2)nnc1C1CCCN(C(=O)CCC2CC2)C1 (centres undefined) | -6.43%
CCN1CCn2c(C)cnc2C12CCN(C(=O)c1ccco1)CC2 | -4.85%
CCn1cnnc1CCNc1nc(C)cc(C)c1C#N | 27.1%
CN1CCC(Cc2noc(-c3cccc(Oc4ncccn4)c3)n2)CC1 | -2%
CCOCC1CN(C(=O)Cc2cccs2)Cc2ccnn2C1 (centres undefined) | -9.44%
CSCCC(=O)N1CCN(CC(O)C(C)(C)C)CC1 (centres undefined) | 24.8%
Cc1cc(C)n(CC2CCCCN2CCc2ccncc2)n1 (centres undefined) | 4.66%
CS(=O)(=O)c1nccn1Cc1ccc(F)cc1Cl | -6.78%
CN(C)CCn1c2c(ccc1=O)CC(NCc1cnn(C)c1)CC2 (centres undefined) | -8.72%
CCc1nccn1CC(=O)Nc1cccc(C(=O)N(C)C)c1 | 7.42%

Compound | cytotoxicity at 70.5 h
COc1c(C)cnc(CNC(=O)c2cc(C)nc3onc(C)c23)c1C | -5.39%
O=C(c1ccco1)N1C(CN2CCOCC2)[C@]2(O)CC[C@H]1CC2 (some centres undefined) | -6%
COc1cc(C(=O)NC(CC(=O)O)c2cccs2)cc(OC)c1C (centres undefined) | -6.87%
CCC1CN(CC(=O)N2CCC2)CCN1CCOC (centres undefined) | -2.85%
CC(C)c1nc2n(n1)CC(NCc1ncc(C(C)(C)C)o1)CC2 (centres undefined) | 0.95%
CC(=O)N1CCCN(C(=O)c2cnn(-c3ccccc3Cl)c2)CC1 | -17.1%
Cc1nn(C)c(C)c1C1CCCN1C(=O)CCCc1ccccn1 (centres undefined) | -4.63%
CC(OCC(F)(F)F)C(=O)N1CCN(S(C)(=O)=O)CC1 (centres undefined) | -1.69%
CCC(C)[C@H](N)c1nnc(SCC(=O)Nc2ccc(C)cc2C)o1 (some centres undefined) | 0.595%
CSc1ccc(CN(CCO)C(=O)CCOc2ccccc2)cc1 | -7.56%
O=C(CCc1ccccn1)N1CCN(C(=O)CC2CCCCC2)CC1 | -4.45%
Clc1ccc(C(CNCc2ccncc2)n2cccn2)cc1 (centres undefined) | -1.54%
COc1ncccc1C(=O)N1CCCC1c1nc(-c2ccccc2)n[nH]1 (centres undefined) | -0.047%
Cc1nn(C)c(C)c1NC(=O)CCn1ncc2ccccc21 | 9.95%
Cc1csc(Nc2nccnc2C2CCCN2CC(N)=O)n1 (centres undefined) | 11%
CS(=O)(=O)N1CC[C@H]2O[C@@H](C(=O)NCc3ccco3)CC[C@H]21 | -12%
COC(=O)CN(C(=O)c1ccc(-n2ccnc2)cc1)C1CCCC1 | 27.9%
Cc1ncsc1CCN(C)C(=O)CN1CCCCC1=O | 12.5%
COCc1nc(CNC2CCSCC2)no1 | -8.13%
CC(C)NC(=O)N1CCC2(CC1)[C@@H]1CN(C(=O)N(C)C)C[C@@H]1C(=O)N2C | -7.71%
CCc1nc(C2CCCN2C(=O)c2csc(NC(C)=O)n2)no1 (centres undefined) | -1.48%
CC(=O)N1CCC[C@H]1C(=O)NCCOc1cccc(Cl)c1 | 0.931%
CN(C)C1COC2(CCN(Cc3ccncc3)CC2)C1 (centres undefined) | -7.75%

Compound | cytotoxicity at 70.5 h
COC(=O)CCC(=O)NC(C)Cc1ccccc1Br (centres undefined) | -4.19%
CC(C)c1nccn1Cc1cc(C(=O)NCC(F)(F)F)n[nH]1 | -9.18%
COCC(C)N(Cc1ccccc1OC)C(=O)c1cc(C)[nH]c(=O)c1 (centres undefined) | -5.15%
Cc1cncc(C2CCN(C(=O)c3ccc(-n4cccn4)nc3)CC2)n1 | -2.8%
CCS(=O)(=O)NCCCNC1CSCCc2ccccc21 (centres undefined) | -7.41%
CC(C)CCN(C)Cc1nc2c(cnn2C)c(=O)[nH]1 | -5.91%
CCSc1ccccc1C(=O)NCCn1nc(-n2cncn2)ccc1=O | -10.2%
CC(C)c1nnc(NC(=O)N(C)Cc2ccc(C(N)=O)cc2)s1 | -4.8%
CCOCC1CN(C(=O)C2CCOCC2)Cc2cnn(C)c21 (centres undefined) | 17.4%
CCN1CC2(CC1=O)CN(Cc1cccs1)CCN(C(=O)C(C)C)C2 (centres undefined) | 2.16%
COc1cccc(-c2nnn(C3CCN(CC(F)(F)F)C3=O)n2)c1 (centres undefined) | 0.471%
CN(CCc1ccncc1)C(=O)C1CSCN1C(=O)C(C)(C)C (centres undefined) | -8.71%
CC(C)c1nc(C2CCCN2C(=O)c2cnns2)no1 (centres undefined) | -1.79%
Cn1cnnc1S(=O)(=O)C1CCN(C(=O)c2ccco2)CC1 | 10.3%
CS(=O)(=O)N1CC(c2n[nH]c3ncccc23)C1 | -1.49%
CCn1cnnc1CNC(=O)Cc1ccc2c(c1)OCCO2 | -14.5%
Cc1csc(CNc2cnn(CC(C)C)c2)n1 | 3.86%
COc1ccc(CN[C@@H]2CO[C@H](CNC(=O)N3CCOCC3)[C@H]2O)cc1 | 2.1%
CN(C)C(=O)C1CCCN1c1ncnc2ccsc12 (centres undefined) | -10.1%
CC1CN(C)CCN1C(=O)c1ccn(-c2ccccc2Cl)n1 (centres undefined) | 16.7%
c1ccc(COC[C@H]2CC[C@H]3[C@H](CCN3Cc3cccs3)O2)nc1 | -3.77%
O=C1N(CCCc2ccccc2)CCCC1(O)CN1CCC(CO)CC1 (centres undefined) | -9.35%
O=C(c1ccncc1)N1CCC2(COc3ncccc3S(=O)(=O)N2)C1 (centres undefined) | -5.87%

Compound | cytotoxicity at 70.5 h
COC1COC2(CCN(Cc3ccccc3Cl)CC2)C1 (centres undefined) | -14.5%
COCCOCC(=O)N1C[C@@H]2CC[C@H](Oc3cccc(F)c3)[C@@H]2C1 | -3.05%
O=C(C1CCOCC1)N1C[C@H]2CCC[C@@]2(COc2ccccn2)C1 | -11.3%
Cc1nc2cc(O)nn2c(C)c1CCC(=O)NCCc1nccn1C | -10.9%
Cc1nc([C@@H]2C[C@@H]3CCN(Cc4cnn(C)c4)C[C@H]3O2)sc1C | -5.41%
Cc1cc(Br)oc1C(=O)N1CCCN(CC(N)=O)CC1 | -7.35%
CCOc1ccc(C#N)cc1NC(=O)N1CCC(N2CCCC2)C1 (centres undefined) | -9.59%
N#Cc1ccc(C(=O)N2CCn3cc(CN4CCCCC4)nc3C2)cc1 | -11.7%
CN(C)CCNC(=O)c1cc2n(n1)CCN(C(=O)c1ccco1)C2 | -5.47%
COc1ccnc(N2CCN(C(=O)c3cccc(C#N)c3)CC2)n1 | -7.44%
COc1cccc(CNCc2cccnc2)c1 | 9.83%
CC1c2ncc(Cn3cncn3)n2CCN1CC1CCOCC1 (centres undefined) | -5.6%
Cc1ccc(CNC(=O)NC2CCN(CC(F)F)CC2)cc1 | -4.96%
Cc1cc(C)nc(C2(C)CCCN2CCO)n1 (centres undefined) | -0.984%
CCS(=O)(=O)N(C)C1CCN(C(=O)c2ccc(C)c(C)c2)CC1 | -8.23%
CN(Cc1nccs1)c1nccc(N2CCN[C@H]3CS(=O)(=O)C[C@H]32)n1 | 2.95%
Cc1ccccc1CN(C)C(=O)CN1CCCCC1Cn1cncn1 (centres undefined) | -7.31%
N#CC1C(=O)Nc2c(cnn2C2CCCC2)C12CCCCC2 (centres undefined) | -1.92%
COc1ccc(CNC(=O)Nc2ccc(=O)n(C)c2)cc1 | -3.5%
O=C1CCSCC(C(=O)N2CCOCC2)N1 (centres undefined) | 0.753%
CC(C)c1cc(C(=O)N2CCN(Cc3ccco3)CC2)n[nH]1 | 32.7%
O=C(Cc1csc(-c2ccoc2)n1)NCCC(=O)N1CCCCC1 | -2.09%
